Data published in ChEMBL document CHEMBL3044901, “Synthesis and insecticidal activity of N-oxydihydropyrroles: 4-hydroxy-3-mesityl-5,5-dimethyl derivatives with various substituents at the 1-position” (Biosci Biotechnol Biochem, 2002).

Columns and labels:
Oryza sativa = assay: Phytotoxicity against Oryza sativa exposed to compound spraying at […] measured 7 days post compound treatment by post-emergence glasshouse test; assay type: organism-based; settings: in vivo, other, 168 h
Myzus persicae [1] = assay: Insecticidal activity against Myzus persicae (green peach aphid) infested Brassica campestris stems followed by leaf exposure to test compound spraying assessed as insect mortality at 10 ppm measured 5 days post compound treatment by contact exposure test; assay type: functional; settings: 120 h
Myzus persicae [2] = assay: Insecticidal activity against Myzus persicae (green peach aphid) infested Brassica campestris stems followed by cut stem exposure to test compound assessed as insect mortality at 1 ppm measured 5 days post compound treatment by systemic exposure test; assay type: functional; settings: 120 h
Nilaparvata lugens [3] = assay: Insecticidal activity against Nilaparvata lugens (brown planthopper) third-instar larvae contacted with rice stems pre-exposed to compound assessed as insect mortality at 10 ppm measured 5 days post insect release by contact exposure test; assay type: functional; settings: 120 h
Cucumis sativus = assay: Phytotoxicity against Cucumis sativus (cucumber) exposed to compound spraying at […] measured 7 days post compound treatment by post-emergence glasshouse test; assay type: organism-based; settings: in vivo, other, 168 h
Nilaparvata lugens [4] = assay: Insecticidal activity against Nilaparvata lugens (brown planthopper) third-instar larvae reared on rice seedlings assessed as insect mortality at 1 ppm measured 5 days post compound treatment by systemic exposure test; assay type: functional; settings: 120 h
Nilaparvata lugens [5] = assay: Insecticidal activity against Nilaparvata lugens (brown planthopper) third-instar larvae reared on rice seedlings assessed as insect mortality at 10 ppm measured 5 days post compound treatment by systemic exposure test; assay type: functional; settings: 120 h
Nilaparvata lugens [6] = assay: Insecticidal activity against Nilaparvata lugens (brown planthopper) third-instar larvae contacted with rice stems pre-exposed to compound assessed as insect mortality at 1 ppm measured 5 days post insect release by contact exposure test; assay type: functional; settings: 120 h
Myzus persicae [7] = assay: Insecticidal activity against Myzus persicae (green peach aphid) infested Brassica campestris stems followed by cut stem exposure to test compound assessed as insect mortality at 0.1 ppm measured 5 days post compound treatment by systemic exposure test; assay type: functional; settings: 120 h
Myzus persicae [8] = assay: Insecticidal activity against Myzus persicae (green peach aphid) infested Brassica campestris stems followed by leaf exposure to test compound spraying assessed as insect mortality at 1 ppm measured 5 days post compound treatment by contact exposure test; assay type: functional; settings: 120 h

SMILES | Phytotoxicity (Oryza sativa) | mortality at 10 ppm (Myzus persicae [1]) | mortality at 1 ppm (Myzus persicae [2]) | mortality at 10 ppm (Nilaparvata lugens [3]) | Phytotoxicity (Cucumis sativus) | mortality at 1 ppm (Nilaparvata lugens [4]) | mortality at 10 ppm (Nilaparvata lugens [5]) | mortality at 1 ppm (Nilaparvata lugens [6]) | mortality at 0.1 ppm (Myzus persicae [7]) | mortality at 1 ppm (Myzus persicae [8])
CON1C(=O)C(c2c(C)cc(C)cc2C)=C(O)C1(C)C | 100% | 60% | 100% | 90% | 60% | 100% | 100% | 30% | 0% | 0%
COC(=O)ON1C(=O)C(c2c(C)cc(C)cc2C)=C(OC(=O)CC(C)(C)C)C1(C)C | 60% | 0% | 0% |  | 0% | 30% |  | 60% | 0% | 0%
COCCON1C(=O)C(c2c(C)cc(C)cc2C)=C(O)C1(C)C | 90% | 90% | 100% | 90% | 60% | 90% | 90% | 30% | 100% | 0%
Cc1cc(C)c(C2=C(O)C(C)(C)N(OCC3CCCCC3)C2=O)c(C)c1 | 60% | 0% | 60% | 90% | 0% | 60% | 60% | 30% | 0% | 0%
Cc1cc(C)c(C2=C(OC(=O)CC(C)(C)C)C(C)(C)N(OS(C)(=O)=O)C2=O)c(C)c1 | 0% | 0% | 0% |  | 0% | 0% |  | 0% | 0% | 0%
Cc1cc(C)c(C2=C(OC(=O)CC(C)(C)C)C(C)(C)N(OC(=O)CC(C)(C)C)C2=O)c(C)c1 | 0% | 60% | 0% |  | 0% | 0% |  | 0% | 0% | 0%
Cc1cc(C)c(C2=C(O)C(C)(C)N(OCc3ccccc3)C2=O)c(C)c1 | 30% | 0% | 0% | 0% | 0% | 30% | 100% | 30% | 0% | 0%
Cc1cc(C)c(C2=C(OC(=O)CC(C)(C)C)C(C)(C)N(OC(=O)C(C)(C)C)C2=O)c(C)c1 | 0% | 0% | 0% |  | 0% | 30% |  | 0% | 0% | 0%
C=CCON1C(=O)C(c2c(C)cc(C)cc2C)=C(O)C1(C)C | 100% | 100% | 100% | 90% | 0% | 60% | 100% | 60% | 60% | 0%
Cc1cc(C)c(C2=C(O)C(C)(C)N(O)C2=O)c(C)c1 | 90% | 60% | 100% | 0% | 60% | 0% |  | 0% | 0% | 0%
CCOCON1C(=O)C(c2c(C)cc(C)cc2C)=C(OC(=O)CC(C)(C)C)C1(C)C | 0% | 100% | 100% | 100% | 60% | 0% | 100% | 100% | 60% | 100%
CCCON1C(=O)C(c2c(C)cc(C)cc2C)=C(O)C1(C)C | 100% | 30% | 90% | 100% | 0% | 60% | 100% | 30% | 90% | 0%
CSCON1C(=O)C(c2c(C)cc(C)cc2C)=C(O)C1(C)C | 90% | 0% | 90% | 30% | 0% | 30% | 100% | 30% | 30% | 0%
CCON1C(=O)C(c2c(C)cc(C)cc2C)=C(O)C1(C)C | 100% | 0% | 100% | 100% | 0% | 60% | 90% | 60% | 60% | 0%
CON1C(=O)C(c2c(C)cc(C)cc2C)=C(OC(=O)CC(C)(C)C)C1(C)C | 30% | 30% | 0% | 90% | 60% | 30% | 90% | 90% | 0% | 0%
CC(=O)ON1C(=O)C(c2c(C)cc(C)cc2C)=C(OC(=O)CC(C)(C)C)C1(C)C | 60% | 0% | 0% |  | 0% | 30% |  | 60% | 0% | 0%
Cc1cc(C)c(C2=C(OC(=O)CC(C)(C)C)C(C)(C)N(OCC#N)C2=O)c(C)c1 | 0% | 100% | 100% | 100% | 60% | 60% | 100% | 90% | 0% | 0%
Cc1cc(C)c(C2=C(O)C(C)(C)N(OC(C)C)C2=O)c(C)c1 | 100% | 0% | 60% | 60% | 0% | 30% | 90% | 30% | 0% | 0%
COCON1C(=O)C(c2c(C)cc(C)cc2C)=C(O)C1(C)C | 100% | 100% | 100% | 100% | 90% | 60% | 100% | 60% | 100% | 0%
C#CCON1C(=O)C(c2c(C)cc(C)cc2C)=C(O)C1(C)C | 100% | 90% | 100% | 100% | 0% | 90% | 90% | 60% | 60% | 0%
Cc1cc(C)c(C2=C(OC(=O)CC(C)(C)C)C(C)(C)N(OC(=O)N(C)C)C2=O)c(C)c1 | 0% | 0% | 0% |  | 0% | 30% |  | 0% | 0% | 0%
COCON1C(=O)C(c2c(C)cc(C)cc2C)=C(OC(=O)CC(C)(C)C)C1(C)C | 100% | 100% | 100% | 100% | 90% | 30% |  | 30% | 100% | 100%
COCCOCON1C(=O)C(c2c(C)cc(C)cc2C)=C(O)C1(C)C | 100% | 90% | 100% | 60% | 100% | 30% | 100% | 30% | 100% | 0%
Cc1cc(C)c(C2=C(OC(=O)CC(C)(C)C)C(C)(C)N(O)C2=O)c(C)c1 | 30% | 0% | 0% | 100% | 0% | 60% | 90% | 90% | 0% | 0%
